According to patent publication US10226466B2, “Methods of treating fibrosis” (Pharmacyclics LLC, priority 2014, dated 2019):
“And” between values parts separate entries of the source, which are not always exact repeats. Equal values may be shown once. “Also recorded” adds a separate entry of the source.

Columns and labels:
[1] = tested on: p53^ER/ER;LSLKRas^G12D;pdx1-Cre mice; assay: Flow cytometry of single cell suspensions of PDAC tumors from treated mice; type: in vivo, mouse; details: ibrutinib 25 mg/Kg/day in drinking water, 4 weeks
Description: Following resection, PDAC tumors isolated from PBS-perfused mice were immediately placed in ice-cold PBS, followed by manual mincing using scissors and a 20 min enzymatic digestion with 1.25 mg/mL collagenase type IV (Roche), 0.1% trypsin inhibitor, and 50 U/ml DNase I (Roche) in serum-free Dulbecco's Modified Eagle's Medium (DMEM) (Invitrogen) at 37° C. with continuous stirring. Single cell suspensions were then prepared by passing tissue through 70 μm nylon strainers (BD Biosciences). Cells were incubated for 30 min at 4° C. with rat anti-mouse CD16/CD32 mAb (1:250, clone 2.4G2, BD Bioscience) in PBS, which also contained Live/Dead Aqua stain (1:250, Invitrogen) to differentiate between viable and dead cells. Cells were then incubated for 30 min in PBS containing 1.0% BSA (Sigma) and 2 mM EDTA with 100 μl of fluorophore-conjugated anti-mouse antibodies (dilution; clone): PE-Cy7-CD45 (1:800; 30-F11), PerCp-Cy5.5-CD3e (1:400; 145-2C11), PerCp-Cy5.5-CD19 (1:200; 6D5), PerCp-Cy5.5-CD49b (1:400; DX5), Alexa 700-CD11b (1:400; M1/70), APC780-CD11c (1:200; N418), eFluor450-MHCII (1:800; M5/114.15.2), APC-Ly6C (1:800; HK1.4), PE-Ly6G (1:400; 1A8), and PE-Cy5-F4/80 (1:400; BM8) (eBioscience or Biolegend). Cells were then washed once in PBS containing 1.0% BSA (Sigma) and 2 mM EDTA, followed by fixation with BD Cytofix for 30 min on ice. […]

mast cell = details: mouse model of insulinoma; background statement; cited from earlier work
[2] = tested on: subcutaneous xenografts of a patient derived tumor in NOD/SCID mice; assay: Collagen deposition in subcutaneous xenografts of a patient-derived tumor (PDX) in NOD/SCID mice; type: in vivo, mouse; details: NOD/SCID mice with patient-derived xenograft, ibrutinib-treated vs untreated
Description: (§1) For immunohistochemical analyses, tissue samples were fixed overnight in neutral pH-buffered formalin, embedded in paraffin and sectioned (5 μm). Sections were then deparaffinized, rehydrated and microwaved for 1 min in 0.01 M citrate buffer (pH 6.0) for antigen retrieval. Primary antibodies (rat monoclonal anti-CD11b (clone M1/70), eBioscience; rabbit monoclonal anti-Ki67 (clone SP6), Neomarkers) were applied for 2 h in blocking buffer (2.5% BSA, 5% goat serum and 0.3% Triton X-100 in PBS), followed by Vectastain ABC kit and DAB reagents (Vector Laboratories). Images were obtained with an Axiovert S100 TV inverted fluorescence microscope (Zeiss) and Open Lab 3.5.1 software, or with an Axiovert 100 inverted microscope (Zeiss) equipped with a Hamamatsu Orca digital camera. The mast cells were identified using 1% toluidine blue dissolved in ethanol. Picrosirius Red stain kit (Polysciences, Inc.) was used to stain for collagen Types I and III according to manufacturer instructions.
NOD/SCID mice were purchased from Charles River Laboratory. The anonymized human sample employed was part of the tissue biological material of the University Hospital Vall d'Hebron. […] Tumor size was evaluated weekly by caliper measurements and tumor volume calculated using the following formula: […]

[3] = tested on: p53^ER/ER;LSLKRas^G12D;pdx1-Cre mice; assay: Survival study in PDAC model mice (Kaplan-Meier, Log-rank test); type: in vivo, mouse; details: treatment starting from 8 weeks of age; Log-rank p value=0.015
Description: For all experiments, 8 week old male and female p53^ER/ER;LSLKRas^G12D;pdx1-Cre mice of mixed C57BL/6-FVB/N background were randomized into two groups: treated and control. Ibrutinib (0.16 mg/mL with 1% 2-Hydroxypropyl-beta-cyclodextrin (HP-β-CD)) was added to the drinking water of treated animals, and control animals received water containing vehicle only (1% HP-β-CD). Gemcitabine (75 mg/kg) was injected intraperitoneally twice a week for 3 weeks followed by a 1-week rest period. Sodium cromoglycate (10/kg) was dissolved in saline solution and injected intraperitoneally, and control mice were treated with vehicle only. Endpoint criteria were defined as 20% body weight loss in addition to general morbidity and lethargy caused by tumor burden. Mice euthanized due to intestinal metaplasia or mucocutaneous papillomas caused by extrapancreatic KRAS^G12D expression were excluded from the survival study.
Statistical analysis was carried out by two-tailed Mann-Whitney test (for IHC counts), two tailed unpaired t-test (for flow cytometry data) and Log-Rank test (for Kaplan-Meier survival curves). […] Statistical analysis was performed using GraphPad Prism 4.
Two independent survival experiments were undertaken to test the therapeutic impact of ibrutinib alone and to assess ibrutinib in combination with gemcitabine.

[4] = tested on: p53^ER/ER;LSLKRas^G12D;pdx1-Cre mice; assay: Histology, immunohistochemistry and Picrosirius Red collagen staining of pancreata from PDAC model mice treated for 4 weeks; type: in vivo, mouse; details: for Collagen deposition (Picrosirius Red Staining): intraperitoneal daily injection of 10 mg per kg for 4 weeks from 8 weeks of age, compared to vehicle-treated control
Description: as §1
For all experiments, 8 week old male and female p53^ER/ER;LSLKRas^G12D;pdx1-Cre mice of mixed C57BL/6-FVB/N background were randomized into two groups: treated and control. Ibrutinib (0.16 mg/mL with 1% 2-Hydroxypropyl-beta-cyclodextrin (HP-β-CD)) was added to the drinking water of treated animals, and control animals received water containing vehicle only (1% HP-β-CD). Gemcitabine (75 mg/kg) was injected intraperitoneally twice a week for 3 weeks followed by a 1-week rest period. Sodium cromoglycate ([…]) was dissolved in saline solution and injected intraperitoneally, and control mice were treated with vehicle only. Endpoint criteria were defined as 20% body weight loss in addition to general morbidity and lethargy caused by tumor burden. Mice euthanized due to intestinal metaplasia or mucocutaneous papillomas caused by extrapancreatic KRAS^G12D expression were excluded from the survival study.
A p53^ER/ER;LSLKRas^G12D;pdx1-Cre mouse model that harbors a Cre-activated KRasG12D allele inserted into the endogenous KRas locus combined with pancreas-specific PDX-1-driven Cre recombinase activity was used. The disruption of Trp53 signaling in combination with KRas mutation leads to rapid tumorigenesis and histopathological features typical of human pancreatic adenocarcinoma within only 8 weeks. At this stage the animals were treated with ibrutinib, at a dose of 25 mg/Kg/day added to their drinking water, or with vehicle control. The animals were euthanized 4 weeks later and their pancreata harvested for analysis. […] In stained, vehicle-treated mast cells, the cell borders were broken and the content of their granules were released. […] Reasons for this phenomenon can include the fact that several chemokines produced by mast cells, such as IL6, are known to be potent stimulants for monocytic cell migration and macrophage activation, so that inhibiting mast cells could prevent their recruitment.
In order to verify that this effect on fibrosis was specifically due to mast cell interference, two independent control experiments were performed. In the first experiment, sodium cromoglycate (cromolyn), a well-characterized blocker of mast cell degranulation and inflammogen release was used. The p53^ER/ER;LSLKRas^G12D ,pdx1-Cre mice were treated intraperitoneally (i.p.) with a daily injection of 10 mg per kg (bodyweight) of cromolyn, starting at 8 weeks of age. The animals were euthanized 4 weeks later and their pancreata analysed.

Row | SMILES | F4/80 positive macrophages (tumor-associated macrophages) by FACS analysis ([1]; FIG. 1C right panel) | CD11b+ cells by FACS analysis ([1]; percent of total cells, FIG. 1C left panel) | Systemic mast cell blocking (mast cell) | Collagen deposition / tissue fibrosis in tumor stroma (Picrosirius Red Staining) [2] | Survival, monotherapy vs vehicle control [3] | Ki67 positive (proliferating) cells in pancreata / proliferation rate ([4]; ibrutinib 25 mg/Kg/day in drinking water for 4 weeks from 8 weeks of age, IHC, vehicle control 67.8%, p value=0.0016) | Mast cell degranulation in tumor stroma (toluidine blue staining) ([4]; ibrutinib 25 mg/Kg/day in drinking water, 4 weeks) | Amount of collagen in tumors (Picrosirius Red Staining) ([4]; ibrutinib 25 mg/Kg/day in drinking water, 4 weeks, compared to vehicle-treated animals) | CD11b positivity by immunohistochemistry ([4]; ibrutinib 25 mg/Kg/day in drinking water, 4 weeks, compared to vehicle-treated mice) | Collagen deposition (Picrosirius Red Staining) [4] | Collagen deposition (Picrosirius Red Staining) ([4]; listed as sodium cromoglicate)
1 | C=CC(=O)N1CCC[C@@H](n2nc(-c3ccc(Oc4ccccc4)cc3)c3c(N)ncnc32)C1 [ibrutinib, (R)-1-(3-(4-amino-3-(4-phenoxyphenyl)-1H-pyrazolo[3,4-d]pyrimidin-1-yl)piperidin-1-yl)prop-2-en-1-one] | significant reduction | confirmed by FACS analysis | potent systemic mast cell blocker | reduction in tissue fibrosis; also recorded: reduction of collagen deposition | significant survival advantage; also recorded: confers survival advantage | 14.9±7.0% and 14.9% | efficiently inhibited | reduced the amount of collagen | affected; also recorded: clear reduction of CD11b positivity |  | 
2 | O=C(O)c1cc(=O)c2c(OCC(O)COc3cccc4oc(C(=O)O)cc(=O)c34)cccc2o1 [cromolyn, sodium cromoglycate, reference compound] |  |  |  |  |  |  |  |  |  | reduced collagen deposition | recapitulated the antifibrotic effect
